According to PubChem BioAssay (NCI):
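Tested at 5 concentrations; 48 h exposure; 96-well plates; endpoints linearly interpolated, else capped at highest concentration. GI50 marks 50% less growth. The concentration for full growth arrest is given as TGI.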

How the values were obtained:
Experiment in all cases: NCI anticancer screen, dose series, 48 h
CCRF-CEM leukemia = test system: CCRF-CEM leukemia
COLO 205 colon = test system: COLO 205 colon
HCT-116 colon = test system: HCT-116 colon
HCT-15 colon = test system: HCT-15 colon
HS 578T breast = test system: HS 578T breast
K-562 leukemia = test system: K-562 leukemia
MDA-MB-435 = test system: MDA-MB-435
NCI-H23 lung = test system: NCI-H23 lung
SF-539 CNS = test system: SF-539 CNS
U251 CNS = test system: U251 CNS

SMILES	GI50 (CCRF-CEM leukemia) [µM]	TGI (CCRF-CEM leukemia) [µM]	GI50 (COLO 205 colon) [µM]	TGI (COLO 205 colon) [µM]	GI50 (HCT-116 colon) [µM]	TGI (HCT-116 colon) [µM]	GI50 (HCT-15 colon) [µM]	TGI (HCT-15 colon) [µM]	GI50 (HS 578T breast) [µM]	TGI (HS 578T breast) [µM]	GI50 (K-562 leukemia) [µM]	TGI (K-562 leukemia) [µM]	GI50 (MDA-MB-435) [µM]	TGI (MDA-MB-435) [µM]	GI50 (NCI-H23 lung) [µM]	TGI (NCI-H23 lung) [µM]	GI50 (SF-539 CNS) [µM]	TGI (SF-539 CNS) [µM]	GI50 (U251 CNS) [µM]	TGI (U251 CNS) [µM]
C[C@]12CC[C@H](O)CC1=CC[C@@H]1[C@@H]2CC[C@]2(C)C(=O)/C(=C/c3cccc(OCCCn4ccnc4)c3)C[C@@H]12	16.4	> 100	20.3	45.8	15	30.2	16.8	40.4	21.5	54.2	16	58.1	36.8	> 100	15.5	32.3	18.7	35.5	24.8	77.3
Cc1c(Cl)ccc2c1NC(=O)C2(O)CC(=O)c1ccc(Cl)cc1Cl (stereo not given)	–	22.4	–	> 50	–	> 50	–	> 50	–	48.9	–	> 50	–	> 50	–	> 50	–	> 50	–	> 50
COc1cc(OC)c(-c2cc(=O)c3c(OC)c(OC)c(OC)c(OC)c3o2)cc1OC	–	> 100	–	> 100	–	> 100	–	> 100	–	> 100	–	> 100	–	> 100	–	> 100	–	> 100	–	> 100
C[C@@H]1O[C@@H](O[C@H]2C[C@@H](O)[C@]3(CO)C4C(CC[C@]3(O)C2)[C@@]2(O)CC[C@H](C3=CC(=O)OC3)[C@@]2(C)C[C@H]4O)[C@H](O)[C@H](O)[C@H]1O (stereo not given in full)	0.0168	0.0808	0.0747	0.151	0.0174	0.056	0.0372	0.114	0.0182	4.32	0.0323	0.162	0.0595	0.134	0.0163	0.0602	0.0185	0.0599	0.025	0.0839
OCC1SC(n2cnc3cncnc32)C(O)C1O (stereo not given)	> 100	> 100	> 100	> 100	> 100	> 100	> 100	> 100	> 100	> 100	> 100	> 100	> 100	> 100	> 100	> 100	> 100	> 100	> 100	> 100
CC1=CC[C@@H]2[C@@H](CC[C@@]2(C)O)C(C)(C)[C@H]1CC[C@@H]1[C@@]2(C)CCC(=O)C(C)(C)O[C@@H]2CC[C@]1(C)O	–	48	–	55.8	–	42	–	34.3	–	77	–	–	–	> 100	–	> 100	–	36.5	–	> 100
COc1cc2c(cc1OC)C13CCN4CC5=CCOC(CC(=O)O)C(C5CC41)C3N2 (stereo not given)	–	> 100	–	> 100	–	> 100	–	> 100	–	> 100	–	> 100	–	> 100	–	> 100	–	> 100	–	> 100
COC1=CC(c2ccc[nH]2)=N/C1=C\c1[nH]c(C)c(C(=O)CCC(=O)Oc2ccc3c(c2)CCC2C3CC[C@]3(C)C(=O)CC[C@@H]23)c1C (stereo not given in full)	0.527	> 100	21.5	> 100	0.773	> 100	2.52	> 61.8	14.2	> 100	4.22	> 100	7.7	> 100	9.75	> 100	14.3	> 100	3.31	> 86.7
COc1ccc2c(c1)O/C(=C\c1cccc(OCC(=O)Nc3nc4ccccc4s3)c1)C2=O	0.419	1.25	> 100	> 100	24.1	> 100	13.9	> 100	13.8	70.1	6.07	> 100	14.2	> 100	3.58	> 100	24.7	> 84.5	12.6	53.3
CO/N=C(\c1ccccc1)c1cnn(-c2ccccc2)c1N	> 25	> 25	> 25	> 25	> 25	> 25	> 25	> 25	> 25	> 25	> 25	> 25	> 25	> 25	> 25	> 25	> 25	> 25	> 25	> 25
O=C(NO)c1ccc(C(=O)NO)cc1	–	83.1	–	> 100	–	> 100	–	> 100	–	> 100	–	> 100	–	> 100	–	> 100	–	> 100	–	35.7
O=C(c1ccccc1)c1ccc(-c2ccc(O)cc2)cc1	0.533	> 23.9	19.4	45.9	8.42	44.7	5	27.7	17.3	> 53.3	2.92	> 60.7	0.328	1.55	6.16	42.7	14.6	56.9	3.69	20.1
CN(C(=O)c1ccc(F)cc1C(F)(F)F)C1CCN(c2nnc(-c3ccnn3C)c3ccccc23)CC1	31.6	> 100	32.9	> 100	40.8	> 100	39.9	> 100	50.8	> 100	27.3	> 100	26.6	> 100	29.3	> 100	> 100	> 100	59.3	> 100
O=C(CC12CC3CC(CC(C3)C1)C2)NCCOCCOCCNC(=O)c1cc2c(o1)C(=O)c1ccccc1C2=O	2.27	13.1	1.28	2.76	1.58	4.96	0.867	2.39	1.43	5.18	1.33	4.9	0.185	0.343	0.133	0.469	1.14	2.37	1.37	2.81
O=C1OCC(c2ccc(O)c(O)c2)=C1c1cc(O)c(O)c(O)c1	30.4	> 100	23.3	57.7	18.1	35.5	19.3	44.1	87.9	> 100	21.2	46.1	17	32.5	19.2	38.2	22.8	47.9	17.9	32.7
c1ccc2c(c1)O[As](O[As]1Oc3ccccc3O1)O2	0.434	10.8	5.42	20.2	3.17	14.1	2.33	17	3.47	65.9	1.66	7.28	2.8	13.9	–	–	1.84	6.27	1.35	4.43
COc1ccc(-c2cc3c4c(nc5ccccc5c4c2)CC(c2cc(OC)c(OC)c(OC)c2)O3)cc1 (stereo not given)	> 100	> 100	–	–	1.31	4.15	3.73	> 100	1.24	6.81	3.37	> 100	2.99	13.7	3.75	18.5	1.44	2.95	1.76	4.83
CC1OCC2OC(C)OC(C3C4=C(CC(C)(C)CC4=O)OC4=C3C(=O)CC(C)(C)C4)C2O1 (stereo not given)	–	> 100	–	> 100	–	> 100	–	> 100	–	> 100	–	> 100	–	> 100	–	> 100	–	> 100	–	–
O=C1c2ccn(CCCCN3CCOCC3)c2C(=O)c2c1c(O)c1ccccc1c2O	2.75	> 100	5.69	34	7.03	19.9	3.82	25.5	29.8	> 100	2	4.53	2.13	4.62	11.4	23.6	–	–	10.9	31.8
Cc1ccc(S(=O)(=O)N(C)C)cc1[N+](=O)[O-]	> 100	> 100	> 100	> 100	> 100	> 100	> 100	> 100	> 100	> 100	–	–	> 100	> 100	> 100	> 100	> 100	> 100	> 100	> 100
